According to patent US20030022821A1, “Bioactive peptides” (priority 1998, published 2003):
In brackets after ≈: the same amount, converted by molar mass. Read-outs that look alike come from different tables or passages of the source. Square brackets hold non-standard residues; d marks the D form. Ends that are not written are not given here. Peptide text beside a SMILES is read from it. * marks the point of attachment. Trp(2-Pmc) = Cc1c(C)c(S(=O)(=O)c2[nH]c3ccccc3c2C[C@H](N)C(=O)O)c(C)c2c1OC(C)(C)CC2; Acm = CC(=O)NC*

Experiments:
[1] = test system: Staphylococcus aureus ATCC 25923; type: cell-based
Method: (§1) The bacterial strains used were: Escherichia coli ATCC 25922 and Staphylococcus aureus ATCC 25923. All strains were stored at −70° C. The bacteria were grown in 2% Bacto Peptone water (Difco 1807-17-4). All tests were performed with bacteria in mid-logarithmic growth phase. Determination of the minimum inhibitory concentration (MIC) of the peptides for bacterial strains were performed in 1% Bacto Peptone water. A standard microdilution technique with an inoculum of 2×10^6 CFU/ml was used. All assays were performed in triplets. Since the peptides are positively charged and therefore could adhere to the plastic wells, we controlled the actual concentration of the peptides in the solution by HPLC. There was no difference between the concentration of the peptides before or after adding the solution to the plastic wells.

[2] = test system: Escherichia coli ATCC 25922; type: cell-based
Method: as §1

| Compound | MIC S. aureus ([1]; ATCC 25923) [µg/mL] | MIC E. coli ([2]; ATCC 25922) [µg/mL] | also measured |
| --- | --- | --- | --- |
| CSCC[C@H](NC(=O)[C@H](CCCNC(=N)N)NC(=O)[C@H](Cc1c[nH]c2ccccc12)NC(=O)[C@H](CCC(N)=O)NC(=O)[C@H](Cc1c[nH]c2ccccc12)NC(=O)[C@H](CCCNC(=N)N)NC(=O)[C@H](CCCNC(=N)N)NC(=O)[C@H](CSCNC(C)=O)NC(=O)[C@H](CCCCN)NC(=O)[C@@H](N)Cc1ccccc1)C(=O)N[C@@H](CCCCN)C(=O)N[C@@H](CCCCN)C(=O)N[C@@H](C)C(=O)NCC(=O)N[C@@H](C)C(=O)O [LFB A13] (H-FKC(Acm)RRWQWRMKKAGA-OH) | >200 | 50 (≈ 24.7 µM) |  |
| CSCC[C@H](NC(=O)[C@H](CCCNC(=N)N)NC(=O)[C@H](Cc1c[nH]c2ccccc12)NC(=O)[C@H](CCC(N)=O)NC(=O)[C@H](Cc1c[nH]c2ccccc12)NC(=O)[C@H](CCCNC(=N)N)NC(=O)[C@H](CCCNC(=N)N)NC(=O)[C@H](CSCNC(C)=O)NC(=O)[C@@H](N)CCCCN)C(=O)N[C@@H](CCCCN)C(=O)N[C@@H](CCCCN)C(=O)N[C@@H](CC(C)C)C(=O)NCC(=O)N[C@@H](C)C(=O)O [LFB 18-31] (H-KC(Acm)RRWQWRMKKLGA-OH; N-terminus assumed) |  |  | MIC S. aureus ATCC 25923 ([1]; ATCC 25923): 200 µg/mL; MIC S. aureus ATCC 25923 ([1]; Table 1, value in brackets): 108 µM; MIC S. aureus ([1]; Table 11): 200 µg/mL (≈ 104 µM); MIC E. coli ATCC 25922 ([2]; ATCC 25922): 80 µg/mL; MIC E. coli ATCC 25922 ([2]; Table 1, value in brackets): 43 µM; MIC E. coli ([2]; Table 11): 80 µg/mL (≈ 41.7 µM) |
| CSCC[C@H](NC(=O)[C@H](C)NC(=O)[C@H](Cc1c[nH]c2ccccc12)NC(=O)[C@H](CCC(N)=O)NC(=O)[C@H](Cc1c[nH]c2ccccc12)NC(=O)[C@H](CCCNC(=N)N)NC(=O)[C@H](CC(C)C)NC(=O)[C@H](CSCNC(C)=O)NC(=O)[C@H](CCCCN)NC(=O)[C@@H](N)CCC(=O)O)C(=O)N[C@@H](CCCNC(=N)N)C(=O)N[C@@H](CCCCN)C(=O)N[C@@H](Cc1ccc(O)cc1)C(=O)NCC(=O)NCC(=O)O [LFM A9 W8 Y13] (H-EKC(Acm)LRWQWAMRKYGG-OH; N-terminus and C-terminus assumed) | >1000 | >1000 |  |
| CSCC[C@H](NC(=O)[C@H](CCCNC(=N)N)NC(=O)[C@H](Cc1c[nH]c2ccccc12)NC(=O)[C@H](CCC(N)=O)NC(=O)[C@H](Cc1c[nH]c2ccccc12)NC(=O)[C@H](CCCNC(=N)N)NC(=O)[C@H](CCCNC(=N)N)NC(=O)[C@@H](N)CSCNC(C)=O)C(=O)N[C@@H](CCCCN)C(=O)N[C@@H](CCCCN)C(=O)N[C@@H](CC(C)C)C(=O)NCC(=O)N[C@@H](C)C(=O)O [LFB 19-31] (H-C(Acm)RRWQWRMKKLGA-OH; N-terminus assumed) | >250 | 200 (≈ 112 µM) | MIC S. aureus ATCC 25923 ([1]; ATCC 25923): > 250 µg/mL; MIC S. aureus ATCC 25923 ([1]; Table 1, value in brackets): > 150 µM; MIC E. coli ATCC 25922 ([2]; ATCC 25922): 200 µg/mL; MIC E. coli ATCC 25922 ([2]; Table 1, value in brackets): 120 µM |
| CSCC[C@H](NC(=O)[C@H](CCCNC(=N)N)NC(=O)[C@H](Cc1c[nH]c2ccccc12)NC(=O)[C@H](CCC(N)=O)NC(=O)[C@H](Cc1c[nH]c2ccccc12)NC(=O)[C@H](CCCNC(=N)N)NC(=O)[C@H](CC(C)C)NC(=O)[C@H](CSCNC(C)=O)NC(=O)[C@H](CCCCN)NC(=O)[C@@H](N)CCCNC(=N)N)C(=O)N[C@@H](CCCNC(=N)N)C(=O)N[C@@H](CCCCN)C(=O)N[C@@H](Cc1ccc(O)cc1)C(=O)NCC(=O)NCC(=O)O [LFM R1, 9 W8 Y13] (H-RKC(Acm)LRWQWRMRKYGG-OH; N-terminus and C-terminus assumed) | 50 (≈ 23.9 µM) | 25 (≈ 11.9 µM) |  |
| CSCC[C@H](NC(=O)[C@H](CCCNC(=N)N)NC(=O)[C@H](Cc1c[nH]c2ccccc12)NC(=O)[C@H](CCC(N)=O)NC(=O)[C@H](Cc1c[nH]c2ccccc12)NC(=O)[C@H](CCCNC(=N)N)NC(=O)[C@H](CCCNC(=N)N)NC(=O)[C@H](CSCNC(C)=O)NC(=O)[C@H](CCCCN)NC(=O)[C@@H](N)Cc1ccccc1)C(=O)N[C@@H](CCCCN)C(=O)N[C@@H](C)C(=O)N[C@@H](CC(C)C)C(=O)NCC(=O)N[C@@H](C)C(=O)O [LFB A12] (H-FKC(Acm)RRWQWRMKALGA-OH) | >200 | 50 (≈ 24.9 µM) |  |
| CSCC[C@H](NC(=O)[C@H](CCCNC(=N)N)NC(=O)[C@H](Cc1c[nH]c2ccccc12)NC(=O)[C@H](CCC(N)=O)NC(=O)[C@H](Cc1c[nH]c2ccccc12)NC(=O)[C@H](CCCNC(=N)N)NC(=O)[C@H](CC(C)C)NC(=O)[C@H](CSCNC(C)=O)NC(=O)[C@H](CCCCN)NC(=O)[C@H](C)N)C(=O)N[C@@H](CCCNC(=N)N)C(=O)N[C@@H](CCCCN)C(=O)N[C@@H](Cc1ccc(O)cc1)C(=O)NCC(=O)NCC(=O)O [LFM A1 R9 W8 Y13] (H-AKC(Acm)LRWQWRMRKYGG-OH; N-terminus and C-terminus assumed) | 200 (≈ 99.5 µM) | 50 (≈ 24.9 µM) |  |
| CSCC[C@H](NC(=O)[C@H](CCCNC(=N)N)NC(=O)[C@H](Cc1c[nH]c2ccccc12)NC(=O)[C@H](CCC(N)=O)NC(=O)[C@H](Cc1ccc(-c2ccccc2)cc1)NC(=O)[C@H](CCCNC(=N)N)NC(=O)[C@H](CCCNC(=N)N)NC(=O)[C@H](CSCNC(C)=O)NC(=O)[C@H](CCCCN)NC(=O)[C@@H](N)Cc1ccccc1)C(=O)N[C@@H](CCCCN)C(=O)N[C@@H](CCCCN)C(=O)N[C@@H](CC(C)C)C(=O)NCC(=O)N[C@@H](C)C(=O)O [LFB Bip6] | 25 (≈ 11.9 µM) | 25 (≈ 11.9 µM) |  |
| CSCC[C@H](NC(=O)[C@H](CCCNC(=N)N)NC(=O)[C@H](Cc1c[nH]c2ccccc12)NC(=O)[C@H](CCC(N)=O)NC(=O)[C@H](Cc1c[nH]c2ccccc12)NC(=O)[C@H](CCCNC(=N)N)NC(=O)[C@H](Cc1ccccc1)NC(=O)[C@H](CSCNC(C)=O)NC(=O)[C@H](CCCCN)NC(=O)[C@@H](N)CCCCN)C(=O)N[C@@H](CCCCN)C(=O)N[C@@H](CCCCN)C(=O)N[C@@H](CC(C)C)C(=O)NCC(=O)N[C@@H](C)C(=O)O [LFB F4K1] (H-KKC(Acm)FRWQWRMKKLGA-OH; N-terminus assumed) |  |  | MIC S. aureus ATCC 25923 ([1]; ATCC 25923): 200 µg/mL; MIC S. aureus ATCC 25923 ([1]; Table 1, value in brackets): 100 µM; MIC S. aureus ([1]; Table 12): 200 µg/mL (≈ 98.2 µM); MIC E. coli ATCC 25922 ([2]; ATCC 25922): 20 µg/mL; MIC E. coli ATCC 25922 ([2]; Table 1, value in brackets): 10 µM; MIC E. coli ([2]; Table 12): 20 µg/mL (≈ 9.82 µM) |
| YRWARWWRR-NH2 [LFM 17-25 A4R2,8, 9W3, 7Y1NH2] | 5 | 10 |  |
| CSCC[C@H](NC(=O)[C@H](CCCNC(=N)N)NC(=O)[C@H](Cc1ccc(-c2ccccc2)cc1)NC(=O)[C@H](CCC(N)=O)NC(=O)[C@H](Cc1c[nH]c2ccccc12)NC(=O)[C@H](CCCNC(=N)N)NC(=O)[C@H](CCCNC(=N)N)NC(=O)[C@H](CSCNC(C)=O)NC(=O)[C@H](CCCCN)NC(=O)[C@@H](N)Cc1ccccc1)C(=O)N[C@@H](CCCCN)C(=O)N[C@@H](CCCCN)C(=O)N[C@@H](CC(C)C)C(=O)NCC(=O)N[C@@H](C)C(=O)O [LFB Bip8] | 15 (≈ 7.13 µM) | 15 (≈ 7.13 µM) |  |
| RRWYRWWR-NH2 [LFM 17-24 R1,2, 8 W3, 7Y4NH2] | 2.5 | 5 |  |
| CSCC[C@H](NC(=O)[C@H](CCCNC(=N)N)NC(=O)[C@H](Cc1c(S(=O)(=O)c2c(C)c(C)c3c(c2C)CCC(C)(C)O3)[nH]c2ccccc12)NC(=O)[C@H](CCC(N)=O)NC(=O)[C@H](C)NC(=O)[C@H](CCCNC(=N)N)NC(=O)[C@H](CCCNC(=N)N)NC(=O)[C@H](CSCNC(C)=O)NC(=O)[C@H](CCCCN)NC(=O)[C@@H](N)Cc1ccccc1)C(=O)N[C@@H](CCCCN)C(=O)N[C@@H](CCCCN)C(=O)N[C@@H](CC(C)C)C(=O)NCC(=O)N[C@@H](C)C(=O)O [LFB A6 PMC] (H-FKC(Acm)RRAQ[Trp(2-Pmc)]RMKKLGA-OH) | 17.5 (≈ 7.89 µM) | 25 (≈ 11.3 µM) |  |
